Experiments:
subcutaneous MC-38 tumor = experiment: Tumor killing effect in vivo, subcutaneous MC-38 mouse tumor model; parameters: species or system C57BL/6N mice
Protocol: The antitumor activity of IONC-AAPH in vivo was evaluated with a subcutaneous MC-38 mouse tumor model. The subcutaneous tumor was induced by inoculating MC-38 cells into the right flank of respective C57BL/6N mice. The mice were randomly divided into 6 groups (n=3): (i) saline, (ii) AAPH, (iii) IONC, (iv) IONC-AAPH, (v) IONC+AMF, and (vi) IONC-AAPH+AMF. When the tumor volume reached 150-200 mm^3, the mice were intratumorally injected with saline, AAPH (2 mM), IONC (5 mg Fe/mL), and IONC-AAPH (5 mg Fe/mL), respectively. After injection the mice in IONC+AMF and IONC-AAPH+AMF groups were subjected to AMF for 1 h. The temperature of the tumors injected with IONC or IONC-AAPH increased rapidly and reached above 45° C. within 5 min, as measured by an infrared thermal camera.
After applying AMF, the temperature in the tumor was much higher than in other parts of the body. […]
Tumor killing effect of IONC-AAPH in vivo: All animal work was approved by the Institutional Animal Care and Use Committee (IACUC) of Rice University. […] The direct tumor killing effect of IONC-AAPH treatment was evaluated with subcutaneous tumor-bearing mice. […] The temperature in the tumor was measured using a high-resolution infrared (IR) camera (E95, Teledyne FLIR). The tumor size was measured daily with a digital caliper, and the tumor volume was calculated as follow: volume=length×width^2/2. […]

[1] = tested on: bone marrow-derived dendritic cells (BMDCs); experiment: Dendritic cell maturation, coculture with treated MC-38 cells; assay type: cell-based, C57BL/6N mice; conditions: without AMF
Protocol: Dendritic cells (DCs) are a key type of antigen-presenting cells that play critical roles in initiating and regulating antitumor immune response. To determine if the immunogenic cell death induced by magnetotherapy can activate dendritic cells, bone marrow-derived dendritic cells (BMDCs) were cocultured with IONC-AAPH-treated MC-38 cells, together with the medium containing DAMPs, in a transwell system for 24 h. The maturation of dendritic cells was estimated as the percentage of CD80+CD86+ cells in CD11c+ cells. […] The percentage of mature DCs in IONC and IONC-AAPH groups was 2.1-fold of the blank.
Determination of Dendritic Cell Maturation: The bone marrow-derived dendritic cells (BMDCs) were prepared from the bone marrow of 8-week old C57BL/6N mice according to an established protocol. To determine the stimulatory effect on BMDCs, IONC-AAPH-treated MC-38 cells (together with the medium containing DAMPs) were cocultured with BMDCs for 24 h in a transwell system (pore size=3 μm). BMDCs only (without coculture) were included as the blank groups. The BMDCs were collected, blocked with CD16/CD32 antibody, and stained with PECD11c, FITC-CD80, and APC-CD86. The data were acquired on MA900 Multi-Application Cell Sorter (Sony) and analyzed using FlowJo software (Tree Star).

MC-38 cells = experiment: Mitochondrial membrane potential (JC-1 staining); assay type: cell-based, murine; conditions: without AMF
Description: JC-1 dye was used to examine the effect of heat and free radical generation by IONC-AAPH on mitochondria. JC-1 dye is an indicator of mitochondrial membrane potential (MMP). In healthy cells with high MMP, JC-1 accumulates in the mitochondria and forms J-aggregates, which emit red fluorescence. In contrast, apoptotic cells with low MMP, JC-1 diffuses in the cytoplasm and remains as J-monomers, which give green fluorescence. A decrease in J-aggregates to J-monomers ratio indicates MMP loss (i.e., mitochondrial depolarizations). […] The J-aggregates to J-monomers ratios quantified using flow cytometry confirmed the significant MMP loss due to heat and free radicals, as illustrated in FIGS. 9 (depicting results of flow cytometry analysis of mitochondrial membrane potential of MC-38 cells 4 h after treatment by JC-1 staining) and 10 (depicting quantification of the J-aggregate to J-monomer ratio using the mean fluorescence detected by flow cytometry in FIG. 9).
Determination of mitochondrial health: The mitochondrial membrane potential of MC-38 cells was determined with JC-1 staining assay. […] After staining, the cells were imaged with a confocal microscope (Nikon A1-Rsi confocal) or analyzed on a flow cytometer (BD Accuri C6 Plus). The ratio of J-aggregates to J-monomers was calculated using the red and green fluorescence intensity measured by flow cytometry.

CC(C)(N=NC(C)(C)C(=N)N)C(=N)N.Cl.Cl [AAPH, 2,2′-azobis(2-amidinopropane) dihydrochloride]
tumor tissue damage (H&E, TUNEL) (subcutaneous MC-38 tumor; without AMF): no tumor tissue damage
tumor weight (subcutaneous MC-38 tumor; without applying AMF): only slightly reduced the tumor weight
effect on DC maturation [1]: did not show a noticeable effect
JC-1 state (mitochondrial membrane potential) (MC-38 cells): J-aggregates were formed

Reference: patent publication US20260027380A1, “TECHNIQUES FOR MAGNETIC NANOCLUSTER-BASED COMBINATION THERAPY” (William Marsh Rice University, priority 2022, published 2026)
